“And” between values parts separate entries of the source, which are not always exact repeats. Identical values can stand only once. Like-named read-outs stand apart in the source and are kept apart here.
Assays:
[1] = biological target: T1, CB2 (Homo sapiens, UniProt P34972); experiment: CB2 internalization flow cytometry assay in whole blood of working-age healthy participants; type: cell-based; conditions: for IC50: B-cells
T1 construct: measured in whole blood samples from nine different healthy human volunteers of working-age; endogenous in cells; host or cells: B-cells (and basophils and other leukocytes) in human whole blood
Description: FIG. 7: IC50 determination for CB2 internalization on B-cells in response to RG7774 in whole blood of healthy participants. Human whole blood was incubated with RG7774 for 1 hour at 37° C. followed by incubation with the anti-human CB2 antibody 1/622. The expression of CB2 on the surface of B-cells was analyzed using a lineage marker mix specific for B-cells (CD45^+ CD3^− CD14^− CD19^+) and T-cells (CD45^+ CD3^+ CD14^−). The B/T-cell CB2 MFI ratio was calculated and normalized to baseline. 0 μM was set as 100% baseline receptor expression.
The CB2 is member of the G-protein coupled receptor family which upon ligand (agonist) binding can respond by internalization of the receptor into the endosomal compartment of the cell, thereby removing the respective receptor form the cell surface and initiating downstream signaling effects (Calebiro, D. et al. Best Pract Res Clin Endocrinol Metab 2018:32 (2):83-91). Such changes in cell surface expression of CB2 on B-cells in response to the treatment with the CB2 agonist RG7774 were measured in whole blood samples from nine different healthy human volunteers of working-age. Whole blood samples were treated with eight compound concentrations in duplicates to determine IC50 of RG7774 using a newly developed flow cytometry assay.
Na-Heparin whole blood samples were incubated in a 96-well plate with RG7774 for 1 hour at 37° C. in a humidified incubator with 5% CO2. Samples were harvested from the 96-well plate and 100 μl were transferred to labeled 5 ml Polystyrene Round Bottom Tubes (Becton Dickinson, Cat #352052). The unlabeled anti-CB2 antibody clone 1/622 was diluted to 50μg/ml with cell staining buffer (BioLegend, Cat #420201). 100 μl diluted anti-CB2 antibody was added to each tube and incubated for 30 minutes at 4° C. For the red blood cell lysis 10× BD PharmLyse lysing buffer (Becton Dickinson, Cat #55899) was diluted to 1× with distilled water and prewarmed to approximately 20° C. After the CB2 antibody incubation 2 ml of prewarmed 1× BD PharmLyse lysing buffer was added to each tube, mixed and incubated for 15 minutes at approximately 20° C. After the incubation, the tubes were centrifuged for 5 minutes at 250×g and 4° C. The supernatant was removed completely, cells were washed two times with cold cell staining buffer and supernatant removed completely after the centrifugation. Human FcR Blocking Reagent (Miltenyi Biotech, Cat #130-059-901) was diluted according to the package insert instructions with cold cell staining buffer. To each sample 50 μl was added, mixed and incubated for 10 minutes at 4° C. The secondary antibody Goat F(ab′)2 Anti-Mouse IgG3 PE (Southern Biotech, Cat #1102-09) was diluted 1:25 in cold cell staining buffer. To each sample 50 μl was added, mixed and incubated for 30 minutes at 4° C. in the dark. […]
For determination of cell surface expression of CB2 on B-cells, median fluorescent intensity (MFI) was analyzed by gating around the CD45^+ CD3^− CD14^− CD19^+ B-cells (see gating strategy in FIG. 6A to FIG. 6E) and acquiring a minimum of 2000 events in this gate (FIG. 6F). With the lineage marker mix other cell populations like T-cells (CD45^+ CD3^+ CD14^−), Monocytes (CD45^+ CD3^− CD14^+), Basophils (CD45^+ CD3^− CD14^− CD19^− CD193^+ IgE^+), NK cells (CD45^+ CD3^− CD14^− CD19^− CD193^− IgE^− CD16^+ CD56^+), Eosinophils (CD45^+ CD16^−) and Neutrophils (CD45^+ CD16^+) could be analyzed.

[2] = biological target: T1, CB2; experiment: CB2 internalization flow cytometry assay in whole blood of diabetic patients and matched healthy participants; type: cell-based
Source text: FIGS. 9A-9E: IC50 value determination for RG7774 in different cell sub-populations in whole blood of diabetic patients and matched healthy participants. Median Fluorescence intensity (MFI)±SD of CB2 surface expression in diabetic patients (open dots, dotted line) and age-matched healthy participants (closed dots, continuous line) after exposure to increasing concentrations of RG7774. Mean MFI for individual data points is based on duplicate measures FIG. 9A: B-cells (CD45^+ CD3^− CD14^− CD19^+). FIG. 9B: Basophils (CD45^+ CD3^− CD14^− CD19^− CD193^+ IgE^+). FIG. 9C: Monocytes (CD45^+ CD3^− CD14^+). FIG. 9D: T-cells (CD45^+ CD3^+ CD14^−). FIG. 9E: NK cells (CD45^+ CD3^− CD14^− CD19^− CD193^− IgE^− CD16^+ CD56^+).
In order to understand, the exposure-response relationship for a drug-induced CB2 internalization on blood cell populations, in particular on B-cells and Basophils, whole blood of nine different diabetic type 1 and 2 patients and eight demographically and age-matched healthy participants were treated with 8 compound concentrations in duplicates to determine the IC50 of RG7774.
Human whole blood from diabetic patients and age-matched healthy participants was incubated with RG7774 for 1 hour at 37° C. followed by incubation with the anti-human CB2 Ab 1/622. The expression of CB2 on the surface of the different blood cell types was analyzed using the lineage marker mix specific for B-cells, Basophils, T-cells, NK-cells and Monocytes. MFI values at 0 μM RG7774 were set as 100% baseline receptor expression for each cell type.

[3] = individual donors, DM type 1, value in parentheses = excluded outlier subject
[4] = individual donors, matched healthy participants (HP)

T1 sequence (P34972 whole entry): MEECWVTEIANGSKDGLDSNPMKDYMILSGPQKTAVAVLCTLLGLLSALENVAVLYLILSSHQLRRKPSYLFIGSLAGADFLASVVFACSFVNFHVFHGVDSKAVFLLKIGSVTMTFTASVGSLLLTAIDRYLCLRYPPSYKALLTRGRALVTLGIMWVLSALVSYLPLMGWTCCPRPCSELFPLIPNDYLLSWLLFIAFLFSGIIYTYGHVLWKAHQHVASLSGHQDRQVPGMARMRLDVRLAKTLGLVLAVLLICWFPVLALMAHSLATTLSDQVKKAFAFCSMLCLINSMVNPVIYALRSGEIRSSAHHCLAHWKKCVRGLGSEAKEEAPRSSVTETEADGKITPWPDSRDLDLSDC

Cn1nnnc1Cn1nnc2c(N3CC[C@H](O)C3)nc(C(C)(C)C)nc21 [RG7774, (S)-1-[5-tert-Butyl-3-(1-methyl-1H-tetrazol-5-ylmethyl)-3H-[1,2,3]triazolo [4,5-d]pyrimidin-7-yl]-pyrrolidin-3-ol]
reduction of the CB2 cell surface expression ([1]; Basophils (data not shown)): can also be detected | Fold change vs HPs of mean IC50 (CB2 on B-cells) ([1]; Healthy Participants (working-age), reference group): 1 | IC50 ([1]; IC50, individual working-age healthy donors, whole blood 1 hour 37° C., B/T-cell CB2 MFI ratio): 0.125 µM and 0.0816 µM and 0.0647 µM and 0.0867 µM and 0.0643 µM and 0.144 µM | IC50 ([1]; Individual IC50 values, range over donors, healthy human participants): 0.0643 to 0.144 µM | reduction of the CB2 cell surface expression ([1]; T-cells, Monocytes, NK-cells, Eosinophils and Neutrophils (data not shown)): has not been observed | Emax ([2]; Basophils, both groups on average, read-out: Emax): ~60% | Emax ([2]; DM (all) (n = 8), read-out: Mean Emax (Basophils) ± SD per diagnosis): 60.4 ± 9.5% | Emax ([2]; DM type 1 (n = 3), read-out: Mean Emax (B-cells) ± SD per diagnosis): 60.5 ± 2.8% | Emax ([2]; DM type 1 (n = 3), read-out: Mean Emax (Basophils) ± SD per diagnosis): 65.9 ± 2.2% | Emax ([2]; DM type 2 (n = 5), read-out: Mean Emax (B-cells) ± SD per diagnosis): 53.6 ± 14.5% | Emax ([2]; DM type 2 (n = 5), read-out: Mean Emax (Basophils) ± SD per diagnosis): 57 ± 10.9% | Fold change vs HPs of mean IC50 (CB2 on B-cells) ([2]; DM vs working-age healthy participants): 1.8x | IC50 ([2]; Individual IC50 (B-cells), individual donors, DM type 1, value in parentheses = excluded outlier subject): 0.225 µM and 0.126 µM and 1.06 µM | IC50 ([2]; Individual IC50 (B-cells), individual donors, DM type 2): 0.335 µM and 0.0579 µM | IC50 ([2]; Individual IC50 (Basophils), individual donors, DM type 1, value in parentheses = excluded outlier subject): 0.072 µM and 0.0381 µM and 0.0317 µM and 0.154 µM | IC50 ([2]; Individual IC50 (Basophils), individual donors, DM type 2): 0.061 µM and 0.0257 µM and 0.0546 µM and 0.0229 µM and 0.0444 µM | IC50 ([2]; Individual IC50 (Basophils), individual donors, matched healthy participants (HP)): 0.0221 µM and 0.0235 µM and 0.0265 µM and 0.0581 µM and 0.0558 µM and 0.0773 µM and 0.0801 µM | Emax ([2]; Matched HPs (n = 8), read-out: Mean Emax (Basophils) ± SD per diagnosis): 59.3 ± 4.5% | Fold change vs HPs of mean IC50 (CB2 on B-cells) ([2]; Matched Healthy vs working-age healthy participants): 2.6 x | IC50 ([2]; Mean IC50 (Basophils) ± SD per diagnosis, DM (all) (n = 8)): 0.0438 ± 0.0175 µM | IC50 ([2]; Mean IC50 (Basophils) ± SD per diagnosis, DM type 1 (n = 3)): 0.0472 ± 0.0217 µM | IC50 ([2]; Mean IC50 (Basophils) ± SD per diagnosis, DM type 2 (n = 5)): 0.0417 ± 0.017 µM | IC50 ([2]; Mean IC50 (Basophils) ± SD per diagnosis, Matched HPs (n = 8)): 0.0572 ± 0.0328 µM | fold higher exposure to achieve half maximum internalization of the CB2 on B-cells ([2]; diabetic patients and matched healthy participants relative to working-age healthy participants): 2-3 fold | Individual Emax (B-cells) [2, 3]: 62.79% and (59.35) % | Individual Emax (Basophils) [2, 3]: 68.43% and 64.41% and (57.09) % | Emax ([2]; individual donors, DM type 1, value in parentheses = excluded outlier subject, read-out: Individual Emax (B-cells)): 62% | Emax ([2]; individual donors, DM type 1, value in parentheses = excluded outlier subject, read-out: Individual Emax (Basophils)): 64.9% | Individual Emax (B-cells) ([2]; individual donors, DM type 2): 34.08% and 74.13% and 50.35% and 58.24% and 51.25% | Individual Emax (Basophils) ([2]; individual donors, DM type 2): 41.64% and 62.91% and 54.19% and 70.94% | Individual Emax (B-cells) [2, 4]: 52.88% and 51.18% and 52.64% and 70.18% and 52.40% and 60.22% and 49.16% and 57.11% | Individual Emax (Basophils) [2, 4]: 64.04% and 57.73% and 54% and 58.78% and 62.7% | Emax ([2]; individual donors, matched healthy participants (HP), read-out: Individual Emax (Basophils)): 66.1%

From patent US20260029420A1, “ANTI-CB2 ANTIBODIES AND THEIR USE IN A FLOW CYTOMETRY ASSAY TO MEASURE CELL SURFACE CB2 EXPRESSION” (Hoffmann-La Roche Inc., priority 2022, published 2026)
